Results published in patent US20100311729A1, “Substituted imidazopyridazines and pyrrolopyrimidines as lipid kinase inhibitors” (priority 2007, published 2010).

Experiments:
Type in all cases: biochemical
PI3K beta = biological target: T1, PI3K beta (Homo sapiens, UniProt P42338); experiment: PI3 kinase assay (Kinase-Glo luminescence), PI3K beta; conditions: Enzymatic Data; read-out: PI3K beta IC50 [umol]
T1 construct: for the full-length p110-b subunit are generated and fused by overlapping PCR; His tag (C); made in house; host or cells: baculovirus; Tn5 (Trichoplusia ni) or TiniPro insect cells
Summary of the method: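 PI3Kβ (25 nM, BV-949) with 10 μg/mL phosphatidylinositol in Tris pH 7.5/MgCl2/NaCl/CHAPS/DTT buffer; reaction started with 1 μM ATP, 60 min at room temperature. ATP depletion read by Kinase-Glo luminescence; 8-point dilutions, IC50 by four-parameter logistic fit.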

PI3K gamma = biological target: T2, PI3K gamma (Homo sapiens, UniProt P48736); experiment: PI3 kinase assay (Kinase-Glo luminescence), PI3K gamma; conditions: Enzymatic Data; read-out: PI3K gamma IC50 [umol]
T2 construct: PI3Kγ BV-950 p110g(D144aa)-C-Term His Tag; His tag (C); made in house; host or cells: construct from the Roger Williams lab (MRC LMB) in pVL1393; baculovirus; Tn5 (Trichoplusia ni) or TiniPro insect cells
Summary of the method: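 Kinase-Glo luminescence assay with 1 μM ATP and 10 μg/mL phosphatidylinositol (final), reaction started by ATP addition. IC50 from 4-parameter logistic fit of percent inhibition at 8 compound concentrations (usually 10 down to 0.003 […]).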

PI3K alfa = biological target: T3, PI3K alfa (Homo sapiens, UniProt P42336); experiment: PI3 kinase assay (Kinase-Glo luminescence), PI3K alfa; conditions: Enzymatic Data; read-out: PI3K alfa IC50 [umol]
T3 construct: for the p110-a subunit (with a deletion of the first 20 amino acids); His tag (C); made in house; host or cells: baculovirus; Tn5 (Trichoplusia ni) or TiniPro insect cells
Summary of the method: (§1)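 Recombinant PI3K constructs (alfa 10 nM, delta 10 nM, gamma 150 nM) with 1 μM ATP and 10 μg/mL phosphatidylinositol in Tris pH 7.5, MgCl2, NaCl, CHAPS, DTT; 60 min (alfa, delta) or 120 min (gamma) at room temperature. ATP depletion read by Kinase-Glo luminescence; IC50 from 4-parameter logistic fit over 8 concentrations.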

PI3K delta = biological target: T4, PI3K delta (Homo sapiens, UniProt O00329); experiment: PI3 kinase assay (Kinase-Glo luminescence), PI3K delta; conditions: Enzymatic Data; read-out: PI3K delta IC50 [umol]
T4 construct: for the full-length p110-d subunit are generated and fused by overlapping PCR; His tag (C); made in house; host or cells: baculovirus; Tn5 (Trichoplusia ni) or TiniPro insect cells
Summary of the method: as §1

T4 sequence (O00329 with tags, fused parts or gaps limits assumed): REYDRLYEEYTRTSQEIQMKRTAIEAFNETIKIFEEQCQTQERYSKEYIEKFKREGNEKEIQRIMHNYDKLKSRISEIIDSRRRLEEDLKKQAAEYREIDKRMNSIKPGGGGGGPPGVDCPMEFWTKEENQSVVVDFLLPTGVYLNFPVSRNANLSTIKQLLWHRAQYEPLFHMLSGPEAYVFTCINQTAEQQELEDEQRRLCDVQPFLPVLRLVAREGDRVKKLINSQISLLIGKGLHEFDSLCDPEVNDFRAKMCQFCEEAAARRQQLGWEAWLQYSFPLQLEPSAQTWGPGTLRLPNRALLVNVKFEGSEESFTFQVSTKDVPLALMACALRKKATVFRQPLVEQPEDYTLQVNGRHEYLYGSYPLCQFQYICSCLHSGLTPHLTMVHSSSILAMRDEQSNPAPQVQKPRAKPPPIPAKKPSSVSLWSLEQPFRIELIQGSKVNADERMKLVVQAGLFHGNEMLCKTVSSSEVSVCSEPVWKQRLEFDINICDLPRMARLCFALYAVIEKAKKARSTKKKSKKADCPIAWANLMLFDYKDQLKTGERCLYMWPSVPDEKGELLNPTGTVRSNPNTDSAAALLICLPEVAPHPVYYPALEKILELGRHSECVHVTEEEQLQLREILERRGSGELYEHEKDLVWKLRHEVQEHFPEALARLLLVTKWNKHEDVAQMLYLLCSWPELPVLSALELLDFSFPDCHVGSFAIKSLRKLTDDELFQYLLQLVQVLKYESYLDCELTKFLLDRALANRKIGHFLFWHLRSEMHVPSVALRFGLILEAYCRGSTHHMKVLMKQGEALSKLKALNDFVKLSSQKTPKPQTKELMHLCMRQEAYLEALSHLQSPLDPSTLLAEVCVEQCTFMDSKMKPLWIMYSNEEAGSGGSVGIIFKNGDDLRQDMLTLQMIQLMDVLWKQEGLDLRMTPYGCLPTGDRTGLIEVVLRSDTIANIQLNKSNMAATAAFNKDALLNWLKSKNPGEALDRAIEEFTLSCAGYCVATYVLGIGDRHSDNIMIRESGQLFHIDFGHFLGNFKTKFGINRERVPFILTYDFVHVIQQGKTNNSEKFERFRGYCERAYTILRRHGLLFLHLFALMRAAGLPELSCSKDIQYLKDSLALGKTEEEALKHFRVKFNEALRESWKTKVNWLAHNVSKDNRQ
T2 sequence (P48736 144-1102 limits assumed): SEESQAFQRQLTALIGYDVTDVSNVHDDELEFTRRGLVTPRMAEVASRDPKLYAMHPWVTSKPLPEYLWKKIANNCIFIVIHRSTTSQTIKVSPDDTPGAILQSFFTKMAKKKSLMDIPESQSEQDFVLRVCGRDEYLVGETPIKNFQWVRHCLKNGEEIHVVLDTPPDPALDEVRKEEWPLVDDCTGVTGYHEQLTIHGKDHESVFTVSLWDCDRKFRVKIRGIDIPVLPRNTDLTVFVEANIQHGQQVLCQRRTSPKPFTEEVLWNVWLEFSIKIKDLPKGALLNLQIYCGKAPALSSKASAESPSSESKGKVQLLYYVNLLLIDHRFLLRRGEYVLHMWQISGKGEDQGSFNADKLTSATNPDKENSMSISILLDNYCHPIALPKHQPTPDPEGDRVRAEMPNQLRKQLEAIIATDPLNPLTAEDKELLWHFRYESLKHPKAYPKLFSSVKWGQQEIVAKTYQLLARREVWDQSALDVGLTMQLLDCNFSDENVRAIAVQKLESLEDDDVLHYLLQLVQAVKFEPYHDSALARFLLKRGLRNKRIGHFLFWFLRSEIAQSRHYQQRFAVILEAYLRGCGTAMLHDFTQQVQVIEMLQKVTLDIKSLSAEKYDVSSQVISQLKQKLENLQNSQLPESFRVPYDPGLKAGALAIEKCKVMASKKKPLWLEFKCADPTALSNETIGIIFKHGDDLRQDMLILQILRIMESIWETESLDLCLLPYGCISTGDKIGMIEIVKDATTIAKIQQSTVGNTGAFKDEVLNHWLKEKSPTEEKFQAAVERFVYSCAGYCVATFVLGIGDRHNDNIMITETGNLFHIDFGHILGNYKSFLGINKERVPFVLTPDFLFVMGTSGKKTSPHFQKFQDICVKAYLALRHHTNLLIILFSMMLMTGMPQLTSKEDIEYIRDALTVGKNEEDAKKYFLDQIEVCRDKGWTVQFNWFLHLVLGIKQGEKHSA
T1 sequence (P42338 with tags, fused parts or gaps limits assumed): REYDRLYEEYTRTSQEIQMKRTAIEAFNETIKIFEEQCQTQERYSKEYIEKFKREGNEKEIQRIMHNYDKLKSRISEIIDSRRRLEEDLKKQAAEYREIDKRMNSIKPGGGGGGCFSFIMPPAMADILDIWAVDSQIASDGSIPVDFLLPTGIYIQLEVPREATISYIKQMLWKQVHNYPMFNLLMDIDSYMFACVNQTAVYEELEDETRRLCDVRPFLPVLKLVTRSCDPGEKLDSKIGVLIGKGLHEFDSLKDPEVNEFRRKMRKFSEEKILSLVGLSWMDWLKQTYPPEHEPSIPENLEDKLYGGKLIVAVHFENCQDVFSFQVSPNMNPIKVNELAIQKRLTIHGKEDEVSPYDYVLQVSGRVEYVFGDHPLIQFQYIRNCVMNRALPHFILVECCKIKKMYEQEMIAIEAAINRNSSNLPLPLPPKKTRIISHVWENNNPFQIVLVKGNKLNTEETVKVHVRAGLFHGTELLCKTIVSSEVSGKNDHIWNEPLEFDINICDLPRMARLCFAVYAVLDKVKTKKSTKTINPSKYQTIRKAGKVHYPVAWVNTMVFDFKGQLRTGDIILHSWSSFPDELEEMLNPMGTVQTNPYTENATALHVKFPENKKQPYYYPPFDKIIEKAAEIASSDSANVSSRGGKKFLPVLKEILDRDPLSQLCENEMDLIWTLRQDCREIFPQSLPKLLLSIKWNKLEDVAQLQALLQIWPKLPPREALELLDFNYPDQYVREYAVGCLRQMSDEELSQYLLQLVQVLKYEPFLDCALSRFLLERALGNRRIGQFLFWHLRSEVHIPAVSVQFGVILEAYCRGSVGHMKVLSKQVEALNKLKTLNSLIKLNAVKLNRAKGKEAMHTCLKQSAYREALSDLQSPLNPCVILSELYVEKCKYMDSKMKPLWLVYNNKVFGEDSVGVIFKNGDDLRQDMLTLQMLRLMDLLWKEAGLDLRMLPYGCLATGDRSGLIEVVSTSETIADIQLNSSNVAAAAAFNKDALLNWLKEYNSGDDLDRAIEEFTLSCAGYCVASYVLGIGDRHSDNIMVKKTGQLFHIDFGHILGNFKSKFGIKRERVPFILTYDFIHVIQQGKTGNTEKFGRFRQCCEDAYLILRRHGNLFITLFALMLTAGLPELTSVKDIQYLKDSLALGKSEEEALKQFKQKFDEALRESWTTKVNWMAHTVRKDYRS
T3 sequence (P42336 with tags, fused parts or gaps limits assumed): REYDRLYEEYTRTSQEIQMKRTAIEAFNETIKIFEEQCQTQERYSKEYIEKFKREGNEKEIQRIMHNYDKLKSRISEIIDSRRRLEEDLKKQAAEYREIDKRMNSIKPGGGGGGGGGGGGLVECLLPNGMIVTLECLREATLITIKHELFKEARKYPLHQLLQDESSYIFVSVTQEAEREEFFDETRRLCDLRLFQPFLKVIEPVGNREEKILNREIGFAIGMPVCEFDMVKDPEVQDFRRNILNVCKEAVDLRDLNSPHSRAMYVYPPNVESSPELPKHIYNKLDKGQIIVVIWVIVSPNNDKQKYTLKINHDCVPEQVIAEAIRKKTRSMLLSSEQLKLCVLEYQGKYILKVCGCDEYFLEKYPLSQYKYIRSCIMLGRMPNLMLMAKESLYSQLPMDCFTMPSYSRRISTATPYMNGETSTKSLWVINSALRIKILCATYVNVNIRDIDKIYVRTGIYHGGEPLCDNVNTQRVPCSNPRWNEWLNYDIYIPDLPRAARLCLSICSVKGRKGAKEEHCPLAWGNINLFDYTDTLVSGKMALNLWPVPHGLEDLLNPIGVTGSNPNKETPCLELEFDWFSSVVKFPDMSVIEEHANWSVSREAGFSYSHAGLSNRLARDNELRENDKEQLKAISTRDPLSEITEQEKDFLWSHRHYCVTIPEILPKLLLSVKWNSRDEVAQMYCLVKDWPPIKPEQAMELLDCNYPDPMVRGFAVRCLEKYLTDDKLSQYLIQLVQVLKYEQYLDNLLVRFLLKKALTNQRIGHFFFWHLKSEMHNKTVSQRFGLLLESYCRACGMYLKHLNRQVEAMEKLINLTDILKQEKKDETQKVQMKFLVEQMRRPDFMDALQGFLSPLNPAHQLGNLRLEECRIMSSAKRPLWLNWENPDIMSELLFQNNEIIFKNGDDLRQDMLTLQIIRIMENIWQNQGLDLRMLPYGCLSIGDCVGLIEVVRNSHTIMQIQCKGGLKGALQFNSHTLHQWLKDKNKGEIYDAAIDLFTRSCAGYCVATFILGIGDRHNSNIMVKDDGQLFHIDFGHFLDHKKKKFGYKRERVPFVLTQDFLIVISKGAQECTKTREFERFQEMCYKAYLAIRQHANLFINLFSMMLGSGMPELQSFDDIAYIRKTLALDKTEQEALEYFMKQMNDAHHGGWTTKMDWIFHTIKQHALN

SMILES	IC50 (PI3K beta) [nM]	IC50 (PI3K gamma) [µM]	IC50 (PI3K alfa) [nM]	IC50 (PI3K delta) [nM]
CC(=O)NCCOc1ccc(-c2ccc3ncc(-c4cnc(N)c(C(F)(F)F)c4)n3n2)cc1 [Example 75, N-(2-{4-[3-(6-Amino-5-trifluoro-methyl-pyridin-3-yl)-imidazo [1,2-b]pyridazin-6-yl]-phenoxy}-ethyl)-acetamide]	651	3.09	75	135
Nc1ncc(-c2ccc3ncc(-c4ccc(C(=O)N5CCN(Cc6ccccn6)CC5)cc4)n3n2)cc1C(F)(F)F [Example 85, {4-[6-(6-Amino-5-trifluoromethyl-pyridin-3-yl)-imidazo[1,2-b]pyridazin-3-yl]-phenyl}-(4-pyridin-2-ylmethyl-piperazin-1-yl)-methanone]	340	0.129	19	15
COc1ccc(-c2ccc3ncc(-c4cnc(N)c(OC)n4)n3n2)cc1OC [Example 68, 5-[6-(3,4-Dimethoxy-phenyl)-imidazo [1,2-b]pyridazin-3-yl]-3-methoxy-pyrazin-2-ylamine]	51	1.29	9	26
Nc1ncc(-c2ccc3ncc(-c4cnc5[nH]ccc5c4)n3n2)cc1C(F)(F)F [Example 41, 5-[3-(1H- Pyrrolo [2,3-b]pyridin-5-yl)-imidazo [1,2-b]pyridazin-6-yl]-3-trifluoro-methyl-pyridin-2-ylamine]	212	1.6	264	207
c1cnn(CCOc2ccc(-c3ccc4ncc(-c5cnc6[nH]ccc6c5)n4n3)cc2)c1 [Example 93, 6-[4-(2-Pyrazol-1-yl-ethoxy)-phenyl]-3-(1H-pyrrolo [2,3-b]pyridin-5-yl)-imidazo [1,2-b] pyridazine]	6930	5.83	157	1270
CC(C)(C)OC(=O)NCCOc1ccc(-c2ccc3ncc(-c4cnc(N)c(C(F)(F)F)c4)n3n2)cc1 [Example 73, (2-{4-[3-(6-Amino-5-trifluoro-methyl-pyridin-3-yl)-imidazo [1,2-b]pyridazin-6-yl]-phenoxy}-ethyl)-carbamic acid tert-butyl ester]	> 9100	> 9.1	725	3950
COc1cccc(-c2ccc3ncc(-c4cnc5[nH]ccc5c4)n3n2)c1 [Example 78, 6-(3-Methoxy-phenyl)-3-{1H-pyrrolo [2.3-b]pyridin-5-yl)-imidazo [1,2-b] pyridazine]	2060	4.04	130	1060
COc1ccc(-c2ccc3ncc(-c4cnc5[nH]ccc5c4)n3n2)cc1 [Example 47, 6-(4-Methoxy-phenyl)-3-(1H-pyrrolo [2,3-b]pyridin-5-yl)-imidazo [1,2-b] pyridazine]	> 9100	> 9.1	2720	3840

Results, then the compound that gave them:

IC50 (PI3K beta) [nM]	IC50 (PI3K gamma) [µM]	IC50 (PI3K alfa) [nM]	IC50 (PI3K delta) [nM]	SMILES
168	1.17	8	30	Nc1ncc(-c2ccc3ncc(-c4ccc(C(=O)N5CCN(Cc6ccccn6)CC5)c(F)c4)n3n2)cc1C(F)(F)F [Example 101, {4-[6-(6-Amino-5-trifluoro-methyl-pyridin-3-yl)-imidazo [1,2-b]pyridazin-3-yl]-2-fluoro-phenyl}-(4-pyridin-2-ylmethyl-piperazin-1-yl)-methanone]
134	7.25	151	201	NCCCOc1ccc(-c2cnc3ccc(-c4cnc(N)c(C(F)(F)F)c4)nn23)cc1 [Example 141, 5-{3-[4-(3-Amino-propoxy)-phenyl]-imidazo [1,2-b]pyridazin-6-yl}-3-trifluoro-methyl-pyridin-2-ylamine]
533	5.9	175	266	Nc1ncc(-c2ccc3ncc(-c4ccc(C(=O)N5CCN(CC(=O)N6CCOCC6)CC5)cc4)n3n2)cc1C(F)(F)F [Example 144, 2-(4-{4-[6-(6-Amino-5-trifluoro-methyl-pyridin-3-yl)-imidazo [1,2-b]pyridazin-3-yl]-benzoyl}-piperazin-1-yl)-1-morpholin-4-yl-ethanone]
2060	2.07	106	224	Nc1ncc(-c2ccc3ncc(-c4ccc(OCCCc5ccncc5)cc4)n3n2)cc1C(F)(F)F [Example 174, 5-{3-[4-(3-Pyridin-4-yl-propoxy)-phenyl]-imidazo [1,2-b]pyridazin-6-yl}-3-trifluoro-methyl-pyridin-2-ylamine]
443	> 9.1	71	79	Nc1ncc(-c2ccc3ncc(-c4ccc(S(=O)(=O)NCCCN5CCOCC5)cc4)n3n2)cc1C(F)(F)F [Example 134, 4-[6-(6-Amino-5-trifluoro-methyl-pyridin-3-yl)-imidazo [1,2-b]pyridazin-3-yl]-N-(3-morpholin-4-yl-propyl)-benzene-sulfonamide]
144	1.26	22	39	COc1cc(-c2cnc3ccc(-c4cnc(N)c(C(F)(F)F)c4)nn23)c(F)cc1C(=O)NCCN1CCS(=O)(=O)CC1 [Example 160, 4-[6-(6-Amino-5-trifluoro-methyl-pyridin-3-yl)-imidazo [1,2-b]pyridazin-3-yl]-N-[2-(1,1-dioxo-1lambda*6*- thio-morpholin-4-yl)-ethyl]-5-fluoro-2-methoxy-benzamide]
78	0.397	9	22	COc1cc(-c2cnc3ccc(-c4cnc(N)c(C(F)(F)F)c4)nn23)ccc1C(=O)NCCN1CCOCC1 [Example 115, 4-[6-(6-Amino-5-trifluoro-methyl-pyridin-3-yl)-imidazo [1,2-b]pyridazin-3-yl]-2-methoxy-N-(2-morpholin-4-yl-ethyl)-benzamide]
388	> 9.1	38	113	COc1cc(-c2cnc3ccc(-c4cnc(N)c(C(F)(F)F)c4)nn23)c(F)cc1C(=O)NCCN1CCOCC1 [Example 158, 4-[6-(6-Amino-5-trifluoro-methyl-pyridin-3-yl)-imidazo [1,2-b]pyridazin-3-yl]-5-fluoro-2-methoxy-N-(2-morpholin-4-yl-ethyl)-benzamide]
4710	7.66	501	1090	O=C1CCCN1CCOc1ccc(-c2ccc3ncc(-c4cnc5[nH]ccc5c4)n3n2)cc1F [Example 96, 1-(2-{2-Fluoro-4-[3-(1H-pyrrolo [2,3-b]pyridin-5-yl)-imidazo [1,2-b]pyridazin-6-yl]-phenoxy)-ethyl)-pyrrolidin-2-one]
7100	> 9.1	119	421	CC(C)(C)OC(=O)NCCCOc1ccc(-c2ccc3ncc(-c4cnc(N)c(C(F)(F)F)c4)n3n2)cn1 [Example 175, (3-{5-[3-(G-Amino-5-trifluoro-methyl-pyridin-3-yl)-imidazo [1,2-b]pyridazin-6-yl]-pyridin-2-yloxy}-propyl)-carbamic acid tert-butyl ester]
